Data: EP4194000A1, “CISTUS MONSPELIENSIS EXTRACT AND COMPOSITIONS COMPRISING SAME FOR SKIN SOOTHING” (Pierre Fabre Dermo-Cosmétique, priority 2021, dated 2023)
Each block holds one compound with its values, some of them ahead of it. Ends that are not written are not given here.

Key:
Assay type in all cases: cell-based, humains
substance P = experiment: Substance P release by sensory neurons derived from human pluripotent stem cells, stimulated with veratridine (ELISA)
From the text: Le but de cette étude est d'évaluer les propriétés modulatrices d'un extrait de Cistus monspeliensis dans l'inflammation neurogène cutanée.
Pour se faire, les inventeurs ont développé une approche expérimentale in vitro. Un modèle original de neurones sensoriels humains a été développé après une reprogrammation cellulaire de cellules souches pluripotentes humaines. Ce modèle permet d'étudier les propriétés inhibitrices de la libération de la substance P par les composés à tester, étudié après la stimulation. Ce neuropeptide, la substance P, étant le principal neuromédiateur impliqué dans les voies de la sensibilisation dans l'inflammation neurogène, la douleur et le prurit.
L'étape initiale est la reprogrammation de cellules souches pluripotentes humaines par l'utilisation successive de différents cocktails de facteurs de croissance.
Les caractérisations phénotypiques et morphologiques ont permis de vérifier le pattern des neurones sensoriels avec notamment l'expression des récepteurs spécifiques tels que TrKA, 5HT-2, P2RX3 ou des canaux tels que TRPV1, Nav1.7, Nav1.8, TRPM8 avec une colocalisation avec des marqueurs neuronaux (Tuj1, Brn3A). Ces caractérisations permettent d'établir une durée de reprogrammation pour atteindre un pattern optimal qui est entre J40 et J47 après le début des traitements avec le cocktail des facteurs de croissance.
L'essai est réalisé sur le modèle de neurones sensoriels en culture dans un mélange de milieu (RPMI/N2/B27/Glutamax) en absence (conditions contrôle) ou en présence (groupes traités) des produits à tester. Ces deux conditions sont testées en présence de Vératridine ou en son absence. […] Les niveaux du neuropeptide qu'est la substance P sont quantifiés dix minutes après l'ajout de Veratridine. […]
La substance P libérée est mesurée dans les milieux d'incubation du groupe non traité (contrôle) et des groupes traités après ou non la stimulation de Vératridine. Elle est quantifiée par ELISA selon les instructions du fournisseur. […]

IL-17 = IL-17 release by isolated, amplified Th17 lymphocytes stimulated with anti-CD3/anti-CD28 beads (ELISA)
From the text: (§1) Le but de cette étude est d'évaluer l'activité potentielle d'un extrait de Cistus monspeliensis selon l'invention pour moduler la production de cytokines impliquées dans le psoriasis et la dermatite atopique. Pour se faire, des lymphocytes Th17 isolés et amplifiés à partir du sang circulant de donneurs sont utilisés comme modèle in vitro d'immunopathogénèse du psoriasis. […]
(§2) Les lymphocytes T sont triés à partir de cellules sanguines récupérées de poches de sang fournies par l'Etablissement Français du sang, pour obtenir le phénotype suivant : CD4+ CD45RA- CXCR3- CCR6+. Le nombre de lymphocytes Th17 ainsi obtenu est augmenté par une mise en culture de ces cellules en présence d'un mélange de cytokines (IL-2, anti-TNFα et anti-INFγ) pendant deux semaines.
(§3) Le test est réalisé sur des lymphocytes Th17 humains isolés et amplifiés en absence (conditions contrôle) ou en présence (traité) des composés à tester et sont stimulés ou non par les facteurs de stimulation anti-CD3/anti-CD28.
(§4) Les teneurs des cytokines pro-inflammatoires de Th17 (IL-17 et IL-22) sont quantifiées 24h après la stimulation.
(§5) Les lymphocytes sont traités avec les composés à tester 30 minutes avant la stimulation et pendant 24 heures.
(§6) La Nicardipine, bloqueur des canaux calciques non-sélectifs a été testée (10 µg/ml), solubilisée également dans le DMSO, est utilisée comme contrôle positif. […]

IL-22 = IL-22 release by isolated, amplified Th17 lymphocytes stimulated with anti-CD3/anti-CD28 beads (ELISA)
From the text: as §1, §2, §3, §4, §5, §6

PAR-2 = biological target: T1, PAR-2 (Homo sapiens, UniProt P55085); experiment: Aequorin test, agonist activity on recombinant PAR-2; conditions: reference agonist for PAR-2; read-out: CE50 (the source's name)
T1 construct: expressed in transfected cells; host or cells: CHO-K1 mt aequorin (parental line named; inferred to be the host of the recombinant cells)
T1 sequence (P55085 26-397): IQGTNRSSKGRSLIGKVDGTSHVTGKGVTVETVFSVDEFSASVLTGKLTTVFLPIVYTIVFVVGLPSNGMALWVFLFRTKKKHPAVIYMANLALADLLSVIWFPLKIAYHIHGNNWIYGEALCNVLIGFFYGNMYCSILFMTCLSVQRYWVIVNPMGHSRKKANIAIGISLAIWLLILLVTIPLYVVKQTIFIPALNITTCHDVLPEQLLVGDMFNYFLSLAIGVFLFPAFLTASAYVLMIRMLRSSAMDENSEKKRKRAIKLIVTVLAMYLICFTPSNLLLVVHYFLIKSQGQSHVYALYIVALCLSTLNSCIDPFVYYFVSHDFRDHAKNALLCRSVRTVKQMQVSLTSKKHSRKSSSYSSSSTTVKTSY
From the text: Les inventeurs ont évalué les effets d'un extrait de Cistus monspeliensis sur deux cibles étroitement reliées au prurit, PAR-2 et MRGPRX2.
Les PAR-2 sont des récepteurs couplés aux protéines G. PAR-2 module les réponses inflammatoires, joue un rôle dans l'obésité, le métabolisme et les cancers. PAR-2 agit comme un senseur pour des enzymes protéolytiques générées pendant l'infection. PAR-2 serait retrouvé dans les kératinocytes épidermiques au niveau de la couche stratum granulosum. Des PAR-2 fonctionnels sont également exprimés dans plusieurs types de cellules immunitaires, telles que les éosinophiles, les neutrophiles, les monocytes, les macrophages, les cellules dendritiques, les mastocytes et les cellules T. Le PAR-2 est activé par clivage protéolytique par la tryptase qui est la protéase principale des cellules mastocytaires et la kallikréine qui est impliquée dans des processus inflammatoires et d'homéostasie épidermique. De plus, le clivage protéolytique de PAR-2 induit une signalisation calcique s'il est exprimé dans les neurones participant à la voie afférente. L'activation de MRGPRX2 ([…] G-Protein coupled Receptor) entraine une dégranulation des cellules mastocytaires avec par la suite des réactions pseudo-allergiques. […]

[1] = 10µg/ml, Th17 stimulated anti-CD3/anti-CD28, 24h

Compound: CCN(CC)CC(=O)Nc1c(C)cccc1C [Lidocaïne, lidocaïne]
substance P, Données brutes Moyenne (substance P; 100µM, under Vératridine 3µM stimulation): 34,76 pg/ml | libération de substance P (result in words) (substance P; 100µM, under Vératridine stimulation): réduit significativement la libération de substance P

Compound: COC(=O)C1=C(C)NC(C)=C(C(=O)OCCN(C)Cc2ccccc2)C1c1cccc([N+](=O)[O-])c1 (centres unmarked) [Nicardipine]
IL-17 (moyenne) (IL-17; [1]): 721 pg/mL | inhibition at 10 µg/mL (IL-17; Lymphocyte): 43% | IL-22 (moyenne) (IL-22; [1]): 440 pg/mL | inhibition at 10 µg/mL (IL-22; Lymphocyte): 37%

Compound: COc1ccc(C(=O)O[C@H]2CC[C@@]3(C)[C@@H]4CC[C@H]5[C@]6(O)C[C@H](O)[C@@]7(O)[C@@H](CN8C[C@@H](C)CC[C@H]8[C@@]7(C)O)[C@]6(O)C[C@@]53O[C@]24O)cc1OC [Vératridine]
substance P, Données brutes Moyenne (substance P; Vératridine 3µM alone (stimulus), 10 minutes): 96,26 pg/ml

EC50 (PAR-2): 0.524 µM
Compound: SLIGRL-NH2 [SLIGRL-NH2]
